Reference: article PMC8850458, “The AUTOTAC chemical biology platform for targeted protein degradation via the autophagy-lysosome system” (Nature Communications, 2022)
Several values for one entry are separate records, joined by “and”; a condition that tells them apart may be missing. Identical values can stand only once. Like-named read-outs stand apart in the source and are kept apart here.

How the values were obtained:
[1] = target: T1, mutant desminL385P (Homo sapiens, UniProt P17661, L385P); experiment: WB degradation of mutant desmin in HeLa cells; format: cell-based; details: exogenously expressed
T1 construct: expressed in transfected cells; host or cells: HeLa, transient
Description: (§1) Adherent cells were washed with phosphate-buffered saline (PBS) and cell pellets were lysed in SDS-based sample buffer (277.8 mM Tris-HCI, pH 6.8, 4.4% LDS, 44.4% (v/v) glycerol) containing beta-mercaptoethanol. Alternatively, cell pellets or protein supernatants were lysed in 5X Laemmli sample buffer. Whole-cell lysates were separated using SDS-PAGE, and transferred onto polyvinyllidene difluoride membranes at 100 V for 2 h at 4 °C. The membrane was incubated with a blocking solution consisting 4% skim milk in PBS solution for 30 min at room temperature and incubated with primary antibodies overnight, followed by incubation with host-specific HRP-conjugated secondary antibodies (1:10000 dilution). For signal detection, the membrane was developed with a mixture of ECL solution (Thermo Fisher Scientific) using X-ray films. Densitometry of developed bands was measured and analyzed with ImageJ (NIH, Bethesda).
Supplementary Fig. 5. AUTOTACs selectively target pathological aggregation-prone proteins for autophagic degradation. (a) WB in HEK293T cells treated with PBA-1105 (1 μM) and MG132 (1 μM, 24 h) at the indicated time points. (b) ICC of HeLa cells treated with the indicated compounds (1 μM, 24 h). Scale bar, 10 μm. (c) WB in HEK293T cells treated with PBA-1105 (500 nM, 24 h) and MG132 (1 μM, 24 h) under siRNA-mediated knockdown of p62 or ATG7 (20 nM, 48 h). (d) ICC in HeLa cells transiently expressing WIPI2-GFP and treated with Anle138b-F105 (1 μM, 24 h). Scale bar, 10 μm. (e) ICC in HeLa cells treated with […]
nM, 24 h). (g, h) WB in HeLa cells transiently expressing wild type or mutant (L385P) desmin-flag with LacZ-myc and treated with PBA-1105, PBA-1105b or Anle138b-F105 at the […]

[2] = target: tauP301L insoluble and soluble species (Homo sapiens, UniProt P10636, P618L); experiment: Triton X-100-based insoluble/soluble fractionation; format: cell-based; details: 2.5 μM 24 h, HCQ 10 μM
Description: SH-SY5Y-tau BiFC cells were treated with PBA-1105, PBA and YTK-1105 to determine the degraded fraction of Tau. Using a cell lysis buffer (20 mM HEPES pH 7.9, 0.2 M KCl, 1 mM MgCl2, 1 mM EGTA, 1% Triton X-100, 10% glycerol, protease inhibitor and phosphatase inhibitor), the cells were collected and incubated on ice for 15 min, followed by centrifugation at 13,000 g for 10 min at 4 °C. The supernatant was collected as the soluble fraction and the pellet as the insoluble fraction. Using PBS, the insoluble fraction was washed 4 times and lysed with a SDS-detergent lysis buffer (20 mM HEPES pH 7.9, 0.2 M KCl, 1 mM MgCl2, 1 mM EGTA, 1% Triton x-100, 1% SDS, 10% glycerol, protease inhibitors and phosphatase inhibitors). 5X Laemmli sample buffer was added to the soluble and insoluble samples and boiled for 10 min at 100 °C and loaded on a SDS-PAGE gel.

[3] = target: T2, estrogen receptor beta (ERβ) (Homo sapiens, UniProt Q92731); experiment: Western blot degradation of ERβ; format: cell-based; details: for ERβ band normalized to control, AVG % / ERβ band (PHTPP) normalized to GAPDH and to control, percentage: 293T; for ERβ band normalized to control, AVG % / ERβ band (PHTPP) normalized to GAPDH and to control, percentage / DC50: 24 h; for ERβ band (PHTPP) normalized to GAPDH and to control, percentage: single experiments
T2 construct: Targeted autophagic degradation of endogenous oncoproteins by AUTOTAC; endogenous in cells; host or cells: HEK293T, ACHN, MCF7
Description: as §1

[4] = test system: p62^+ERβ^+ puncta; experiment: ICC of ERβ puncta co-localization in ACHN cells; format: cell-based; details: 24 h; for ERβ-LC3 colocalization, cells of 50 cells counted: single experiments
Description: Cells were cultured on coverslips coated with poly-L-lysine (Sigma) to observe cellular localization of proteins. Using 4% paraformaldehyde in PBS (pH 7.4), the cells were fixed for 15 min at room temperature and washed three times for 5 min with PBS. After fixing, the cells were permeabilized with 0.5% Triton X-100 in PBS solution for 15 min and washed three times with PBS for 5 min. The cells were blocked containing 2% BSA in PBS solution for 1 h at room temperature. Subsequently, the cells were incubated with primary antibody diluted in 2% BSA/PBS solution overnight at 4 °C, followed by washing the cells three times for 10 min with PBS and incubated with Alexa Fluor-conjugated secondary antibody diluted in 2% BSA/PBS for 30 min at room temperature. Using a DAPI-containing mounting medium (Vector Laboratories), the coverslips were mounted on glass slides. Confocal images were taken by laser scanning confocal microscope 510 Meta (Zeiss) and analyzed by Zeiss LSM Image Browser (ver. 4.2.0.121). […] Quantification results are shown as mean ± S.D. or S.E.M. of three independent experiments

[5] = WST-based cell viability assay in ACHN cells; details: human, ACHN cells; for viability at 0.01 µM / viability at 0.1 µM / viability at 1 µM / viability at 10 µM / viability at 50 µM / viability at 100 µM: ACHN
[6] = test system: ACHN cells; experiment: Wound healing assay in ACHN cells; format: cell-based; details: wound healing, compared with p62-binding moiety or TBL
Description: To analyze cell migration in two dimensions, U-87 MG or ACHN cells were plated to a monolayer. Cells were scratched with a sterile 10 μl pipette tip and the debris was removed using medium. Cells were treated with compounds and incubated for different time to monitor cell behavior. Photographs were obtained using a microscope at different time point.

[7] = duplicates, read-out: WST assay viability relative to con = 100
[8] = read-out: WST assay viability, AVG %

T2 sequence (Q92731 whole entry): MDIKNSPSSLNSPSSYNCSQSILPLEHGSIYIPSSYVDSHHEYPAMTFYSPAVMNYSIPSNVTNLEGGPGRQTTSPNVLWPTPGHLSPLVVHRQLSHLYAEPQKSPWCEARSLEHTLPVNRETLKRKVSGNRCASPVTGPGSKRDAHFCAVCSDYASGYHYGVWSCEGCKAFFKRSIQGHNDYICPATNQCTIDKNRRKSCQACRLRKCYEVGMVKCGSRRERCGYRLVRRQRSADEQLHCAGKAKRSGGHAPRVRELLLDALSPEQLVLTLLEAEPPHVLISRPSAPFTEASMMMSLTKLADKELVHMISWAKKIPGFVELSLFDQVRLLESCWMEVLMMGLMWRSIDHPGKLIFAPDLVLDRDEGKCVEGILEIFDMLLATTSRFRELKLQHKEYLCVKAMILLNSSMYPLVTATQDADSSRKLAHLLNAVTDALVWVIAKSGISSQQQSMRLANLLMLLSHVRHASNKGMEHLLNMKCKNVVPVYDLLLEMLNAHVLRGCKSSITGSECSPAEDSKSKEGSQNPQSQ
Sequence of tauP301L insoluble and soluble species (P10636 1-441 isoform P10636-8 P301L): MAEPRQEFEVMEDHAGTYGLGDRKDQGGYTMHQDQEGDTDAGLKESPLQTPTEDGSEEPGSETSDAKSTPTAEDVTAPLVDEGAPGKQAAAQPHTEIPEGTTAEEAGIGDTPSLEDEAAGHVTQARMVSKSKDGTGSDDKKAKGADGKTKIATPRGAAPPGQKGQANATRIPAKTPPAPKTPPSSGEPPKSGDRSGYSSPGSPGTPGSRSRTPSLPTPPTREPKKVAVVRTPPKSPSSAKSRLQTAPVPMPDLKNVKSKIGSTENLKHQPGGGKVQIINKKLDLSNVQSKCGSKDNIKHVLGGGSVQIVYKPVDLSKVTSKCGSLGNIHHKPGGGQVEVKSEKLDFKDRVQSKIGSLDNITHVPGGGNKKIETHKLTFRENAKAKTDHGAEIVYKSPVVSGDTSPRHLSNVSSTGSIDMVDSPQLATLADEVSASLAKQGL
T1 sequence (P17661 whole entry L385P): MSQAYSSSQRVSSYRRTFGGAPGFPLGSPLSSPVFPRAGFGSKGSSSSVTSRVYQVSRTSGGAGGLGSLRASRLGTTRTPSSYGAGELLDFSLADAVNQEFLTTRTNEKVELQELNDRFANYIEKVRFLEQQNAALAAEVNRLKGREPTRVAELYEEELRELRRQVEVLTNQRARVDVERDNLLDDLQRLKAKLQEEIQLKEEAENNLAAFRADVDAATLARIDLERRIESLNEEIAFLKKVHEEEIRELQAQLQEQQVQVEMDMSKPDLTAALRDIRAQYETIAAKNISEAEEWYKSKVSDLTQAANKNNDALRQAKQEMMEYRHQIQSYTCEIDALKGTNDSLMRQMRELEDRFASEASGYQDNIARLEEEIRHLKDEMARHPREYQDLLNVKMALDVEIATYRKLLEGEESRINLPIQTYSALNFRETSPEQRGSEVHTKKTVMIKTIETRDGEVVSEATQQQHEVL

SMILES: O=C(CCCc1ccccc1)NCCOCCOCCOCCNCc1ccc(OCc2ccccc2)c(OCc2ccccc2)c1 [PBA-1105]
- degradation of mutant desminL385P [1]: induced the degradation
- autophagic degradation of detergent-soluble and -insoluble tauP301L [2]: promoted autophagic degradation of not only detergent-soluble but critically also -insoluble species

SMILES: O[C@H](CNCCOCCOCCOc1ccc(-c2c(-c3ccccc3)nn3c(C(F)(F)F)cc(C(F)(F)F)nc23)cc1)COc1ccc(OCc2ccccc2)c(OCCCc2ccccc2)c1 [PHTPP-1304]
- ERβ band normalized to control, AVG % ([3]; 1nM): 52.5102%
- ERβ band (PHTPP) normalized to GAPDH and to control, percentage ([3]; 1nM): 58.6192% and 52.1272% and 46.7843%
- ERβ band normalized to control, AVG % ([3]; 10nM): 17.5552%
- ERβ band (PHTPP) normalized to GAPDH and to control, percentage ([3]; 10nM): 19.5411% and 16.0071% and 17.1174%
- ERβ band normalized to control, AVG % ([3]; 100nM): 4.912%
- ERβ band (PHTPP) normalized to GAPDH and to control, percentage ([3]; 100nM): 9.1943% and 5.039% and 0.5025%
- ERβ band normalized to control, AVG % ([3]; 1uM): 9.556%
- ERβ band normalized to control, AVG % ([3]; 2.5uM): 4.237%
- ERβ band (PHTPP) normalized to GAPDH and to control, percentage ([3]; 2.5uM): 4.5765% and 5.279% and 2.856%
- DC50 ([3]; ACHN renal carcinoma cells, read-out: DC50 of ERβ): < 100 nM
- Dmax, 24 hr (concentration of maximal clearance at the 24 h mark) of ERβ ([3]; HEK293T cells): 10 to 100 nM
- DC50 ([3]; HEK293T cells, read-out: DC50 (half-degrading concentration) of ERβ): ~2 nM and 1.48 nM
- degradation of ERβ under RNA interference of either p62 or ATG5 ([3]; HEK293T, 0.1 μM 24 h, siRNA 40 nM 48 h): completely abolished
- persistence of ERβ degradation post-washout ([3]; MCF7, MG132 1 μM, compound 500 nM 24 h, then washout): at least 8 h
- DC50 and Dmax values of ERβ degradation ([3]; MCF7 cells, proteasomal inhibition (MG132 1 μM, 24 h)): subnanomolar
- DC50 ([3]; MCF-7 breast cancer cells, read-out: DC50 of ERβ): < 100 nM
- ERβ-LC3 colocalization, AVG of cells of 50 ([4]; 0.5uM): 5.667
- ERβ-LC3 colocalization, percentage AVG ([4]; 0.5uM): 11.3333%
- ERβ-LC3 colocalization, AVG of cells of 50 ([4]; 2.5uM): 12.6667
- ERβ-LC3 colocalization, percentage AVG ([4]; 2.5uM): 25.3333%
- ERβ-LC3 colocalization, AVG of cells of 50 ([4]; 10uM + HCQ): 39
- ERβ-LC3 colocalization, percentage AVG ([4]; 10uM + HCQ): 78%
- ERβ-LC3 colocalization, cells of 50 cells counted ([4]; 10uM + HCQ): 34 and 42 and 41
- ERβ-LC3 colocalization, AVG of cells of 50 ([4]; 10uM): 29
- ERβ-LC3 colocalization, percentage AVG ([4]; 10uM): 58%
- ERβ-LC3 colocalization, cells of 50 cells counted ([4]; 10uM): 24 and 34 and 29
- viability at 0.01 µM [5, 7]: 101%
- viability at 0.01 µM [5, 8]: 99.6%
- viability at 0.1 µM [5, 7]: 102%
- viability at 0.1 µM [5, 8]: 101%
- viability at 1 µM [5, 7]: 96.2%
- viability at 1 µM [5, 8]: 96.2%
- viability at 10 µM [5, 7]: 2.13%
- viability at 10 µM [5, 8]: 2.08%
- viability at 50 µM [5, 7]: 12.3%
- viability at 50 µM [5, 8]: 11.6%
- viability at 100 µM [5, 7]: 14.8%
- viability at 100 µM [5, 8]: 15.8%
- IC50 ([5]; WST-based viability assay, read-out: cytotoxicity IC50): 3300 nM
- inhibition of cell migration [6]: more efficiently inhibited cell migration
